In general, GI50 refers to the concentration at which growth is held to half of that of the control. A word on the TGI: it is the concentration giving total growth inhibition.

Structures are written as SMILES.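 Five concentrations, 48 hours, 96-well plates. Abbreviation: GI50, concentration required for 50% inhibition of growth. TGI denotes the concentration required for complete inhibition of growth.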 Where only a bound is given, the exact number is not on record here.

Consider five compounds from PubChem BioAssay (NCI).

Assay in all cases: DTP human tumour cell line panel, 48 h
In assay [1] the test system is SNB-19 CNS.
The subject of assay [2] is TK-10 renal.
Assay [3] relates to NCI-H460 lung.
The subject of assay [4] is MDA-MB-231 breast.
Assay [5] has as its system CCRF-CEM leukemia.
Assay [6] concerns NCI-H23 lung.
Assay [7] concerns ACHN renal.
Assay [8] has as its system RXF 393 renal.
In assay [9] the test system is OVCAR-4 ovarian.
Assay [10] relates to 786-0 renal.

With `CN(C)CCOC(=O)Nc1nc2ccc(Sc3ccccc3)cc2[nH]1`, the GI50 in assay [1] was 4.87 µM; in assay [2], 11 µM; in assay [3] it was 3.69 µM; in assay [4] it was 3.25 µM; in assay [5], 2.67 µM; in assay [6], 4.08 µM. Further, the GI50 in assay [7] is 6.52 µM; in [8], 1.85 µM; in [9], 6.3 µM; in assay [10] it was 3.8 µM. Further, the TGI was found to be 19.5 µM in [1]; 25.5 µM in [2]; 13.7 µM in assay [3]; 12.3 µM in [4]; 16.3 µM in assay [5]; 19.5 µM in assay [6]. Also, the TGI is 19.2 µM in assay [7], 6.6 µM in assay [8], more than 100 µM in [9] and 15 µM in assay [10].
Take `COc1ccc2c(c1OC(C)=O)C1=CC(=O)CCC13CCNC3C2` (stereo not given): the TGI in [1], in assay [2], in assay [3], in assay [4], in assay [5] and in [6] was more than 100 µM throughout. Further, the TGI in assay [7], in [8], in assay [9] and in [10] was more than 100 µM throughout.
For `O=[N+]([O-])c1cc2c([N+](=O)[O-])cccc2o1`, the concentration for total growth inhibition (TGI) in assay [1] was 36 µM; in assay [2], 23.8 µM; in assay [3], more than 100 µM; in assay [4], 27.6 µM; in [5] it was 5.05 µM; in assay [6], 37.6 µM. Also, the total growth inhibition concentration (TGI) in assay [7] came out at 10.6 µM; in [8] it was 20 µM; in [9] it was 3.63 µM; in [10] it was 5.92 µM.
For the compound `CSc1ccc(C(=O)/C=C/c2ccccc2Cl)cc1`, the GI50 in [1] was 26.5 µM; in [2], 18.4 µM; in assay [3], 25.2 µM; in assay [4], 13.3 µM; in assay [5], 19.6 µM; in assay [6] it was 15.4 µM. Besides, the GI50 in assay [7] was 15 µM; in assay [8] it was 4.23 µM; in assay [9], 25.7 µM; in [10] it was 13.1 µM. Further, the concentration for total growth inhibition (TGI) is 61.2 µM in assay [1]; 41.5 µM in assay [2]; 70 µM in [3]; 31.2 µM in assay [4]; more than 100 µM in assay [5]; 32.5 µM in assay [6]. Besides, the TGI in assay [7] is 28.5 µM; in assay [8] it was 16.4 µM; in assay [9], 66 µM; in [10] it was 27.6 µM.
As to `FC(F)(F)c1cc(Nc2ccc3cc(OCCCN4CCOCC4)ccc3n2)ccc1Cl`, the GI50 in assay [1] is 1.84 µM; in assay [2] it was 2.64 µM; in assay [3] it was 1.72 µM; in assay [4], 1.83 µM; in assay [5], 2.03 µM; in [6], 1.94 µM. Further, the GI50 in assay [7] was 2.05 µM; in assay [8] it was 1.39 µM; in [9] it was 2.54 µM; in assay [10] it was 1.3 µM. For the same compound, the concentration for total growth inhibition (TGI) worked out at 3.79 µM in [1]; 5.86 µM in assay [2]; 3.42 µM in [3]; 4.2 µM in [4]; 9.18 µM in [5]; 4.8 µM in [6]. For the same compound, the concentration for total growth inhibition (TGI) in assay [7] is 4.86 µM; in assay [8], 3.22 µM; in assay [9], 12.8 µM; in assay [10], 2.81 µM.
